Results as given in patent US20120277197A1, “TIGECYCLINE FORMULATIONS” (WYETH, priority 2008, published 2012).

Key:
[1] = Effect of pH on stability of tigecycline 0.50 mg/ml in Normal Saline, in a flask at 25° C.; type: physicochemical
Experimental: The effect of pH on the stability of tigecycline formulations having a concentration of 0.50 mg tigecycline/ml in a Normal Saline solution was studied by analyzing the variation of tigecycline content, total impurity content, and the concentration of tigecycline epimer at different pH values, either in the presence of air or under an atmosphere having an oxygen content of less than 1 ppm, in a flask at 25° C.

[2] = simple oral immediate release prototypes, animals; cited from earlier work
[3] = pH 4.5, 72 h, in the presence of air
[4] = pH 5.0, 0 h, in the presence of air
[5] = pH 5.0, 24 h, in the presence of air
[6] = pH 5.0, 72 h, in the presence of air
[7] = pH 5.5, 0 h, in the presence of air
[8] = pH 5.5, 24 h, in the presence of air
[9] = pH 5.5, 72 h, in the presence of air
[10] = pH 6.5, 0 h, in the presence of air
[11] = pH 6.5, 8 h, in the presence of air
[12] = pH 6.5, 24 h, in the presence of air
[13] = pH 6.5, 72 h, in the presence of air
[14] = pH 8.0, 0 h, in the presence of air
[15] = pH 8.0, 8 h, in the presence of air
[16] = pH 8.0, 24 h, in the presence of air
[17] = pH 8.0, 72 h, in the presence of air

## CN(C)c1cc(NC(=O)CNC(C)(C)C)c(O)c2c1C[C@H]1C[C@H]3[C@H](N(C)C)C(O)=C(C(N)=O)C(=O)[C@@]3(O)C(O)=C1C2=O [tigecycline, Tigecycline]
[1]; pH 4.5, 24 h, oxygen <1 ppm
  Total impurity content as a % of initial weight of tigecycline: 0.682%
  Total tigecycline epimer content as a % of initial weight of tigecycline: 0.547%
[1]; [3]
  Percentage of tigecycline remaining: 97%
  Total impurity content as a % of initial weight of tigecycline: 2.625%
  Total tigecycline epimer content as a % of initial weight of tigecycline: 1.95%
[1]; pH 4.5, 72 h, oxygen <1 ppm
  Percentage of tigecycline remaining: 98.50%
  Total impurity content as a % of initial weight of tigecycline: 2.365%
  Total tigecycline epimer content as a % of initial weight of tigecycline: 1.934%
[1]; [4]
  Percentage of tigecycline remaining: 100%
  Total impurity content as a % of initial weight of tigecycline: 0.29%
  Total tigecycline epimer content as a % of initial weight of tigecycline: 0.167%
[1]; [5]
  Percentage of tigecycline remaining: 101%
  Total impurity content as a % of initial weight of tigecycline: 0.691%
  Total tigecycline epimer content as a % of initial weight of tigecycline: 0.49%
[1]; [6]
  Percentage of tigecycline remaining: 99%
  Total impurity content as a % of initial weight of tigecycline: 2.632%
  Total tigecycline epimer content as a % of initial weight of tigecycline: 1.69%
[1]; [7]
  Percentage of tigecycline remaining: 100%
  Total impurity content as a % of initial weight of tigecycline: 0.31%
  Total tigecycline epimer content as a % of initial weight of tigecycline: 0.162%
[1]; [8]
  Percentage of tigecycline remaining: 99%
  Total impurity content as a % of initial weight of tigecycline: 0.865%
  Total tigecycline epimer content as a % of initial weight of tigecycline: 0.52%
[1]; [9]
  Percentage of tigecycline remaining: 97%
  Total impurity content as a % of initial weight of tigecycline: 3.221%
  Total tigecycline epimer content as a % of initial weight of tigecycline: 1.31%
[1]; [10]
  Percentage of tigecycline remaining: 100%
  Total impurity content as a % of initial weight of tigecycline: 0.31%
  Total tigecycline epimer content as a % of initial weight of tigecycline: 0.15%
[1]; pH 6.5, 0 h, oxygen <1 ppm
  Percentage of tigecycline remaining: 100.0%
  Total impurity content as a % of initial weight of tigecycline: 0.224%
  Total tigecycline epimer content as a % of initial weight of tigecycline: 0.111%
[1]; [11]
  Percentage of tigecycline remaining: 100%
  Total impurity content as a % of initial weight of tigecycline: 0.602%
  Total tigecycline epimer content as a % of initial weight of tigecycline: 0.26%
[1]; pH 6.5, 8 h, oxygen <1 ppm
  Percentage of tigecycline remaining: 100.56%
  Total impurity content as a % of initial weight of tigecycline: 0.399%
  Total tigecycline epimer content as a % of initial weight of tigecycline: 0.188%
[1]; [12]
  Percentage of tigecycline remaining: 100%
  Total impurity content as a % of initial weight of tigecycline: 1.429%
  Total tigecycline epimer content as a % of initial weight of tigecycline: 0.43%
[1]; pH 6.5, 24 h, oxygen <1 ppm
  Percentage of tigecycline remaining: 99.59%
  Total impurity content as a % of initial weight of tigecycline: 0.812%
  Total tigecycline epimer content as a % of initial weight of tigecycline: 0.45%
[1]; [13]
  Percentage of tigecycline remaining: 86%
  Total impurity content as a % of initial weight of tigecycline: 11.78%
  Total tigecycline epimer content as a % of initial weight of tigecycline: 1.08%
[1]; pH 6.5, 72 h, oxygen <1 ppm
  Percentage of tigecycline remaining: 98.03%
  Total impurity content as a % of initial weight of tigecycline: 2.654%
  Total tigecycline epimer content as a % of initial weight of tigecycline: 1.532%
[1]; [14]
  Percentage of tigecycline remaining: 100%
  Total impurity content as a % of initial weight of tigecycline: 0.30%
  Total tigecycline epimer content as a % of initial weight of tigecycline: 0.14%
[1]; pH 8.0, 0 h, oxygen <1 ppm
  Percentage of tigecycline remaining: 100.0%
  Total impurity content as a % of initial weight of tigecycline: 0.22%
  Total tigecycline epimer content as a % of initial weight of tigecycline: 0.107%
[1]; [15]
  Percentage of tigecycline remaining: 100%
  Total impurity content as a % of initial weight of tigecycline: 0.924%
  Total tigecycline epimer content as a % of initial weight of tigecycline: 0.27%
[1]; pH 8.0, 8 h, oxygen <1 ppm
  Percentage of tigecycline remaining: 100.81%
  Total impurity content as a % of initial weight of tigecycline: 0.443%
  Total tigecycline epimer content as a % of initial weight of tigecycline: 0.192%
[1]; [16]
  Percentage of tigecycline remaining: 95%
  Total impurity content as a % of initial weight of tigecycline: 3.737%
  Total tigecycline epimer content as a % of initial weight of tigecycline: 0.43%
[1]; pH 8.0, 24 h, oxygen <1 ppm
  Percentage of tigecycline remaining: 99.64%
  Total impurity content as a % of initial weight of tigecycline: 1.214%
  Total tigecycline epimer content as a % of initial weight of tigecycline: 0.425%
[1]; [17]
  Percentage of tigecycline remaining: 57%
  Total impurity content as a % of initial weight of tigecycline: 29.654%
  Total tigecycline epimer content as a % of initial weight of tigecycline: 1.23%
[1]; pH 8.0, 72 h, oxygen <1 ppm
  Percentage of tigecycline remaining: 95.98%
  Total impurity content as a % of initial weight of tigecycline: 3.461%
  Total tigecycline epimer content as a % of initial weight of tigecycline: 1.516%
[2]
  bioavailability: poor bioavailability
